pIC50: −log10 of the molar value. Where two headings read alike, the source gives them in different places.
Tests used:
TC32 cells = test: Potency IC50 in TC32 cells and selectivity; type: cell-based; conditions: Homo sapiens
Description: (§1) Exemplary compounds of the presently-disclosed subject matter were assessed for activity, including clearance, potency, and selectivity. Results from studies are compiled in Tables 2-4.
(§2) Desirable clearance was identified at lower values of mL hr^−1kg^−1 (e.g., about ≤10 mL hr^−1 kg^−1), desirable potency was identified at lower values of IC50 (e.g., about ≤10 nM in TC32 cells), and desired selectivity was identified at higher ratios of IC50 in PC3/IC50 in TC32 (e.g. about >10).

log P = type: physicochemical
PC3 [1] = test: IC50 in PC3 cells; type: cell-based; conditions: head prints PC2, text PC3
Description: as §1, §2

[2] = Clearance (CL) / pharmacokinetics; type: in vivo, mice; conditions: for clearance: mouse, plasma, iv
Description: as §1, §2
Pharmacokinetics of exemplary compounds of the presently-disclosed subject matter were studied in mice following bolus IV dosing. Groups of three mice were administered the compound(s) and blood samples were collected via saphenous bleed. Plasma was separated by centrifugation and extracted to quantitate analytes by LC/MS/MS. Sample analysis followed upon the system meeting system suitability criteria customary for fit for purpose analytical methods. FIG. 1A includes data comparing YL-C09 to mithramycin (MTM) dosed separately. FIG. 1B includes data for YL-B171, YL-C110 and MTM dosed in cassette format.

TC32 = test: Cytotoxicity, resazurin fluorescence, TC32; type: cell-based; conditions: Homo sapiens, TC-32, 72 h, read-out: GI50 TC32, Table 5
Description: (§3) Exemplary compounds of the presently-disclosed subject matter were assessed for cytotoxicity (Table 5) in Ewing sarcoma (TC32) and non-Ewing (PC3 prostate cancer). […] Cells (1000-5000/well) were seeded in 96-well plates and allowed to attach and grow for 24 hr prior to adding compounds in half-log increments from 0.3 nM-10 μM. Cell viability was assessed after 72 hr continuous incubation with compounds using resazurin fluorescence. GI50 values were estimated using GraphPad Prism.

PC3 [3] = test: Cytotoxicity, resazurin fluorescence, PC3; type: cell-based; conditions: for GI50: Homo sapiens, PC-3, 72 h, read-out: GI50 PC3, Table 5; for GI50 PC3: Table 5, 72 hr
Description: as §3

[4] = TC-32, Table 2, read-out: IC50 TC32
[5] = TC-32, Table 4, read-out: IC50 TC32
[6] = Homo sapiens, PC-3, read-out: IC50 PC2, Table 2
[7] = Homo sapiens, PC-3, read-out: IC50 PC2, Table 4
[8] = TC-32, Table 3, read-out: IC50 TC32
[9] = Homo sapiens, PC-3, read-out: IC50 PC2, Table 3

Structure (SMILES) | pIC50 (TC32 cells; [4]) | logP (log P; Table 2) | pIC50 (PC3 [1]; [6]) | CL ([2]; Table 4) | PK Improvement ([2]; Table 4) | clearance ([2]; Table 2) | GI50 (TC32) | CL ([2]; Table 3) | GI50 (PC3 [3]) | further results
CO[C@H](C(=NOCCNC(=O)c1cc2cc(Cl)ccc2[nH]1)[C@@H](O)[C@@H](C)O)[C@@H]1Cc2cc3cc(O[C@H]4C[C@@H](O[C@H]5C[C@@H](O)[C@H](O)[C@@H](C)O5)[C@H](O)[C@@H](C)O4)c(C)c(O)c3c(O)c2C(=O)[C@H]1O[C@H]1C[C@@H](O[C@H]2C[C@@H](O[C@H]3C[C@](C)(O)[C@H](O)[C@@H](C)O3)[C@@H](O)[C@@H](C)O2)[C@H](O)[C@@H](C)O1 [YL-B152] | 8.08 | 2.19 | 7.75 | 0.733 mL/min/kg | 35.9 | 0.733 mL/min/kg | – | – | – | pIC50 (TC32 cells; [5]): 8.08; logP (log P; Table 4): 2.2; pIC50 (PC3 [1]; [7]): 7.75
COC(C(=NOCCNC(=O)c1[nH]c2ccc(Cl)cc2c1-c1cccs1)C(O)C(C)O)C1Cc2cc3cc(OC4CC(OC5CC(O)C(O)C(C)O5)C(O)C(C)O4)c(C)c(O)c3c(O)c2C(=O)C1OC1CC(OC2CC(OC3CC(C)(O)C(O)C(C)O3)C(O)C(C)O2)C(O)C(C)O1 (stereo not shown) [YL-C106] | 7.76 | 3.3 | 6.69 | 0.317 mL/min/kg | 83.1 | 0.317 mL/min/kg | 99 nM | 0.317 mL/min/kg | 236 nM | pIC50 (TC32 cells; [8]): 7.77; pIC50 (TC32 cells; [5]): 7.76; logP (log P; Table 3): 3.3; logP (log P; Table 4): 3.3; pIC50 (PC3 [1]; [9]): 6.69; pIC50 (PC3 [1]; [7]): 6.69
COC(C(=NOCCNC(=O)c1[nH]c2ccc(Cl)cc2c1-c1ccnn1C)C(O)C(C)O)C1Cc2cc3cc(OC4CC(OC5CC(O)C(O)C(C)O5)C(O)C(C)O4)c(C)c(O)c3c(O)c2C(=O)C1OC1CC(OC2CC(OC3CC(C)(O)C(O)C(C)O3)C(O)C(C)O2)C(O)C(C)O1 (stereo not shown) [YL-C104] | 8.25 | 1.77 | 7.64 | – | – | 0.517 mL/min/kg | 34 nM | – | 133 nM | –
CO[C@H](C(=NOCCNC(=O)c1[nH]c2ccc(Cl)cc2c1-c1ccc(Cl)cc1)[C@@H](O)[C@@H](C)O)[C@@H]1Cc2cc3cc(O[C@H]4C[C@@H](O[C@H]5C[C@@H](O)[C@H](O)[C@@H](C)O5)[C@H](O)[C@@H](C)O4)c(C)c(O)c3c(O)c2C(=O)[C@H]1O[C@H]1C[C@@H](O[C@H]2C[C@@H](O[C@H]3C[C@](C)(O)[C@H](O)[C@@H](C)O3)[C@@H](O)[C@@H](C)O2)[C@H](O)[C@@H](C)O1 [YL-C82] | 7.69 | 4.21 | 6.29 | 0.383 mL/min/kg | 68.6 | 0.383 mL/min/kg | 356 nM | 0.383 mL/min/kg | 805 nM | pIC50 (TC32 cells; [5]): 7.69; pIC50 (TC32 cells; TC-32, read-out: IC50 TC32, Table 3): 7.92; logP (log P; Table 3): 4.21; logP (log P; Table 4): 4.2; pIC50 (PC3 [1]; [9]): 6.66; pIC50 (PC3 [1]; [7]): 6.29
COC(C(=NOCCNC(=O)c1[nH]c2ccc(C(F)(F)F)cc2c1-c1ccccc1)C(O)C(C)O)C1Cc2cc3cc(OC4CC(OC5CC(O)C(O)C(C)O5)C(O)C(C)O4)c(C)c(O)c3c(O)c2C(=O)C1OC1CC(OC2CC(OC3CC(C)(O)C(O)C(C)O3)C(O)C(C)O2)C(O)C(C)O1 (stereo not shown) [YL-C66] | – | – | – | 0.2 mL/min/kg | 131.5 | – | – | 0.2 mL/min/kg | – | log P (log P; Table 3): 3.84; log P (log P; Table 4): 3.8; pIC50 (PC3 [1]; Table 3): 6.55
CO[C@H](C(=NOCCNC(=O)c1[nH]c2ccc(C(F)(F)F)cc2c1-c1ccc(Cl)cc1)[C@@H](O)[C@@H](C)O)[C@@H]1Cc2cc3cc(O[C@H]4C[C@@H](O[C@H]5C[C@@H](O)[C@H](O)[C@@H](C)O5)[C@H](O)[C@@H](C)O4)c(C)c(O)c3c(O)c2C(=O)[C@H]1O[C@H]1C[C@@H](O[C@H]2C[C@@H](O[C@H]3C[C@](C)(O)[C@H](O)[C@@H](C)O3)[C@@H](O)[C@@H](C)O2)[C@H](O)[C@@H](C)O1 [YL-C67] | – | – | – | 0.167 mL/min/kg | 157.8 | – | – | 0.167 mL/min/kg | – | log P (log P; Table 2): 4.56; log P (log P; Table 3): 4.56; log P (log P; Table 4): 4.6; pIC50 (PC3 [1]; Table 3): 5.91; CL ([2]; Table 2): 0.167 mL/min/kg; GI50 PC3 (PC3 [3]): > 1000 nM
CO[C@H](C(=NOCCNC(=O)c1[nH]c2ccc(Cl)cc2c1-c1cnn(C)c1)[C@@H](O)[C@@H](C)O)[C@@H]1Cc2cc3cc(O[C@H]4C[C@@H](O[C@H]5C[C@@H](O)[C@H](O)[C@@H](C)O5)[C@H](O)[C@@H](C)O4)c(C)c(O)c3c(O)c2C(=O)[C@H]1O[C@H]1C[C@@H](O[C@H]2C[C@@H](O[C@H]3C[C@](C)(O)[C@H](O)[C@@H](C)O3)[C@@H](O)[C@@H](C)O2)[C@H](O)[C@@H](C)O1 [YL-C102] | 8.13 | 2.26 | 7.37 | – | – | – | 49 nM | – | 334 nM | –
COC(C(=NOCCNC(=O)c1[nH]c2ccc(O)cc2c1-c1ccc(Cl)cc1)C(O)C(C)O)C1Cc2cc3cc(OC4CC(OC5CC(O)C(O)C(C)O5)C(O)C(C)O4)c(C)c(O)c3c(O)c2C(=O)C1OC1CC(OC2CC(OC3CC(C)(O)C(O)C(C)O3)C(O)C(C)O2)C(O)C(C)O1 (stereo not shown) [YL-C120] | 8.12 | 3.04 | 7.50 | – | – | 0.417 mL/min/kg | 36 nM | – | 66 nM | –
COC(C(=NOCCCNC(=O)c1[nH]c2ccc(Cl)cc2c1-c1ccc(Cl)cc1)C(O)C(C)O)C1Cc2cc3cc(OC4CC(OC5CC(O)C(O)C(C)O5)C(O)C(C)O4)c(C)c(O)c3c(O)c2C(=O)C1OC1CC(OC2CC(OC3CC(C)(O)C(O)C(C)O3)C(O)C(C)O2)C(O)C(C)O1 (stereo not shown) [YL-C95] | – | – | – | – | – | – | – | – | – | log P (log P; Table 2): 4.69; CL ([2]; Table 2): 0.433 mL/min/kg; GI50 PC3 (PC3 [3]): > 1000 nM
CO[C@H](C(=NOCCNC(=O)c1[nH]c2ccc(C(F)(F)F)cc2c1-c1ccc(F)c(Cl)c1)[C@@H](O)[C@@H](C)O)[C@@H]1Cc2cc3cc(O[C@H]4C[C@@H](O[C@H]5C[C@@H](O)[C@H](O)[C@@H](C)O5)[C@H](O)[C@@H](C)O4)c(C)c(O)c3c(O)c2C(=O)[C@H]1O[C@H]1C[C@@H](O[C@H]2C[C@@H](O[C@H]3C[C@](C)(O)[C@H](O)[C@@H](C)O3)[C@@H](O)[C@@H](C)O2)[C@H](O)[C@@H](C)O1 [YL-C68] | – | – | – | – | – | – | – | – | – | log P (log P; Table 3): 4.54; GI50 PC3 (PC3 [3]): > 1000 nM
COC(C(=NOCc1[nH]c2ccc(Cl)cc2c1-c1ccccc1)C(O)C(C)O)C1Cc2cc3cc(OC4CC(OC5CC(O)C(O)C(C)O5)C(O)C(C)O4)c(C)c(O)c3c(O)c2C(=O)C1OC1CC(OC2CC(OC3CC(C)(O)C(O)C(C)O3)C(O)C(C)O2)C(O)C(C)O1 (stereo not shown) [YL-C51] | 6.34 | 4.19 | 5.55 | – | – | 0.25 mL/min/kg | > 1000 nM | – | – | GI50 PC3 (PC3 [3]): > 1000 nM
CO[C@H](C(=NOCCNC(=O)c1[nH]c2ccc(F)cc2c1-c1ccc(Cl)cc1)[C@@H](O)[C@@H](C)O)[C@@H]1Cc2cc3cc(O[C@H]4C[C@@H](O[C@H]5C[C@@H](O)[C@H](O)[C@@H](C)O5)[C@H](O)[C@@H](C)O4)c(C)c(O)c3c(O)c2C(=O)[C@H]1O[C@H]1C[C@@H](O[C@H]2C[C@@H](O[C@H]3C[C@](C)(O)[C@H](O)[C@@H](C)O3)[C@@H](O)[C@@H](C)O2)[C@H](O)[C@@H](C)O1 [YL-C118] | 7.44 | 3.64 | 6.24 | – | – | 0.467 mL/min/kg | 232 nM | – | 417 nM | –
CO[C@H](C(=NOCCNC(=O)c1[nH]c2ccc(Cl)cc2c1-c1cnoc1)[C@@H](O)[C@@H](C)O)[C@@H]1Cc2cc3cc(O[C@H]4C[C@@H](O[C@H]5C[C@@H](O)[C@H](O)[C@@H](C)O5)[C@H](O)[C@@H](C)O4)c(C)c(O)c3c(O)c2C(=O)[C@H]1O[C@H]1C[C@@H](O[C@H]2C[C@@H](O[C@H]3C[C@](C)(O)[C@H](O)[C@@H](C)O3)[C@@H](O)[C@@H](C)O2)[C@H](O)[C@@H](C)O1 [YL-C108] | 8.21 | 1.44 | 7.39 | – | – | 0.4 mL/min/kg | 34 nM | – | 126 nM | –
COC(C(=NOCCNC(=O)c1[nH]c2ccc(Cl)cc2c1-c1ccccc1)C(O)C(C)O)C1Cc2cc3cc(OC4CC(OC5CC(O)C(O)C(C)O5)C(O)C(C)O4)c(C)c(O)c3c(O)c2C(=O)C1OC1CC(OC2CC(OC3CC(C)(O)C(O)C(C)O3)C(O)C(C)O2)C(O)C(C)O1 (stereo not shown) [YL-B176] | 7.86 | 3.49 | 6.75 | 0.35 mL/min/kg | 75.1 | 0.35 mL/min/kg | 117 nM | 0.35 mL/min/kg | 304 nM | pIC50 (TC32 cells; [8]): 7.86; pIC50 (TC32 cells; [5]): 7.86; logP (log P; Table 3): 3.49; logP (log P; Table 4): 3.5; pIC50 (PC3 [1]; [9]): 6.75; pIC50 (PC3 [1]; [7]): 6.75

— patent US20260297121A1, “MITHRAMYCIN (MTM) 2’ OXIMES” (University of Kentucky Research Foundation, priority 2023, published 2026)
